In patent US6492397B1, “N-arylheteroarylalkyl imidazol-2-one compounds for treatment of arteriosclerosis” (Pharmacia Corporation, priority 1991, dated 2002):
Where two headings read alike, the source gives them in different places.

Experiments:
[1] = target: smooth muscle angiotensin II receptor; assay: Assay A: Angiotensin II Binding Activity (125I-angiotensin II displacement, rat uterine membrane preparation); settings: 50% displacement of specifically bound 125I-AII, rat uterine membranes, 25° C., 60 min
Method: Assay A: Angiotensin II Binding Activity
Compounds of the invention were tested for ability to bind to the smooth muscle angiotensin II receptor using a rat uterine membrane preparation. […] Other chemicals were obtained from Sigma Chemical Co. This assay was carried out according to the method of Douglas et al [Endocrinology, 106, 120-124 (1980)]. Rat uterine membranes were prepared from fresh tissue. All procedures were carried out at 4° C. Uteri were stripped of fat and homogenized in phosphate-buffered saline at pH 7.4 containing 5 mM EDTA. The homogenate was centrifuged at 1500×g for 20 min., and the supernatant was recentrifuged at 100,000×g for 60 min. The pellet was resuspended in buffer consisting of 2 mM EDTA and 50 mM Tris-HCl (pH 7.5) to a final protein concentration of 4 mg/ml. Assay tubes were charged with 0.25 ml of a solution containing 5 mM MgCl2, 2 mM EDTA, 0.5% bovine serum albumin, 50 mM Tris-HCl, pH 7.5 and […] (approximately 10^5 cpm) in the absence or in the presence of unlabelled ligand. The reaction was initiated by the addition of membrane protein and the mixture was incubated at 25° C. for 60 min. The incubation was terminated with ice-cold 50 mM Tris-HCl (pH 7.5) and the mixture was filtered to separate membrane-bound labelled peptide from the free ligand. The incubation tube and filter were washed with ice-cold buffer. Filters were assayed for radioactivity in a Micromedic gamma counter. Nonspecific binding was defined as binding in the presence of 10 μM of unlabelled AII. Specific binding was calculated as total binding minus nonspecific binding. […] Binding data were analyzed by a nonlinear least-squares curve fitting program.

rabbit aortic rings = assay: Assay B: In Vitro Vascular Smooth Muscle Response for AII (antagonist activity in rabbit aortic rings); format: cell-based; settings: Oryctolagus cuniculus, test antagonist at 10^-5 M, AII contraction, read-out: Assay B pA2 (converted)
Method: Assay B: In Vitro Vascular Smooth Muscle-Response for AII
The compounds of the invention were tested for antagonist activity in rabbit aortic rings. Male New Zealand white rabbits (2-2.5 kg) were sacrificed using an overdose of pentobarbital and exsanguinated via the carotid arteries. The thoracic aorta was removed, cleaned of adherent fat and connective tissue and then cut into 3-mm ring segments. The endothelium was removed from the rings by gently sliding a rolled-up piece of filter paper into the vessel lumen. The rings were then mounted in a water-jacketed tissue bath, maintained at 37° C., between moveable and fixed ends of a stainless steel wire with the moveable end attached to an FT03 Grass transducer coupled to a Model 7D Grass Polygraph for recording isometric force responses. The bath was filled with 20 ml of oxygenated (95% oxygen/5% carbon dioxide) Krebs solution of the following composition (mM): 130 NaCl, 15 NaHCO3, […], 1.2 NaH2PO4, 1.2 MgSO4, 2.5 CaCl2, and 11.4 glucose. The preparations were equilibrated for one hour before approximately one gram of passive tension was placed on the rings. Angiotensin II concentration-response curves were then recorded (3×10^−10 to 1×10^−5 M). Each concentration of AII was allowed to elicit its maximal contraction, and then AII was washed out repeatedly for 30 minutes before rechallenging with a higher concentration of AII. Aorta rings were exposed to the test antagonist at 10^−5 M for 5 minutes before challenging with AII. Adjacent segments of the same aorta ring were used for all concentration-response curves in the presence or absence of the test antagonist. The effectiveness of the test compound was expressed in terms of pA2 values and were calculated according to H. O. Schild [Br. J. Pharmacol. Chemother., 2,189-206 (1947)]. The PA2 value is the concentration of the antagonist which increases the EC50 value for AII by a factor of two. Each test antagonist was evaluated in aorta rings from two rabbits.

pressor response to AII = assay: Assay C: In Vivo Intragastric Pressor Assay Response for AII Antagonists; parameters: species or system rat; settings: for Assay C Duration: Dose: 3 mg/kg (i.g.), Sprague-Dawley rats, AII challenges up to 180 minutes after gavage; for inhibition in vivo at 3 mg/kg: Rattus norvegicus, po
Method: Assay C: In Vivo Intragastric Pressor Assay Response for AII Antagonists
Male Sprague-Dawley rats weighing 225-300 grams were anesthetized with methohexital (30 mg/kg, i.p.) and catheters were implanted into the femoral artery and vein. The catheters were tunneled subcutaneously to exit dorsally, posterior to the head and between the scapulae. The catheters were filled with heparin (1000 units/ml of saline). The rats were returned to their cage and allowed regular rat chow and water ad libitum. After full recovery from surgery (3-4 days), rats were placed in Lucite holders and the arterial line was connected to a pressure transducer. Arterial pressure was recorded on a Gould polygraph (mmHg). Angiotensin II was administered as a 30 ng/kg bolus via the venous catheter delivered in a 50 μl volume with a 0.2 ml saline flush. The pressor response in mm Hg was measured by the difference from pre-injection arterial pressure to the maximum pressure achieved. The AII injection was repeated every 10 minutes until three consecutive injections yielded responses within 4 mmHg of each other. These three responses were then averaged and represented the control response to AII. The test compound was suspended in 0.5% methylcellulose in water and was administered by gavage. The volume administered was 2 ml/kg body weight. The standard dose was 3 mg/kg. Angiotensin II bolus injections were given at 30, 45, 60, 75, 120, 150, and 180 minutes after gavage. The pressor response to AII was measured at each time point. The rats were then returned to their cage for future testing. A minimum of 3 days was allowed between tests. Percent inhibition was calculated for each time point following gavage by the following formula: [(Control Response−Response at time point)/Control Response]×100.

[2] = first value of the pair (aorta rings from two rabbits)
[3] = second value of the pair (aorta rings from two rabbits)

SMILES	IC50 [1]	melting point	Kb (rabbit aortic rings; [2])	Kb (rabbit aortic rings; [3])	Assay C Duration (pressor response to AII)	inhibition in vivo at 3 mg/kg (pressor response to AII)
CCCCc1cn(CC(C)(C)C)c(=O)n1Cc1ccc(-c2ccccc2-c2nnn[nH]2)nc1 [Example 18, 1-neopentyl-4-butyl-1,3-dihydro-3-[[6-[2-(1H-tetrazol-5-yl)phenyl]-3-pyridinyl]methyl]-2H-imidazol-2-one]	12 nM	194.5 to 195 °C	1.62 nM	2.29 nM	>180 min	65%
CCCCc1cn(C2CCCCC2)c(=O)n1Cc1ccc(-c2ccccc2-c2nnn[nH]2)nc1 [Example 21, 1-cyclohexyl-4-butyl-1,3-dihydro-3-[[6-[2-(1H-tetrazol-5-yl)phenyl]-3-pyridinyl]methyl]-2H-imidazol-2-one]	20 nM	202 to 203 °C (dec.)	0.724 nM	0.708 nM	>180 min	40%
CCCCCn1cc(CCCC)n(Cc2ccc(-c3ccccc3-c3nnn[nH]3)nc2)c1=O [Example 15, 1-pentyl-4-butyl-1,3-dihydro-3-[[6-[2-(1H-tetrazol-5-yl)phenyl]-3-pyridinyl]methyl]-2H-imidazol-2-one]	10 nM	162 to 164 °C	1.62 nM	1.41 nM	>180 min	60%
CCCCCc1cn(CCCC)c(=O)n1Cc1ccc(-c2ccccc2-c2nnn[nH]2)nc1 [Example 6, 1-butyl-4-yl-1,3-dihydro-3-[[6-[2-(1H-tetrazol-5-yl)phenyl]-3-pyridinyl]methyl]-2H-imidazol-2-one]	10 nM	176 to 177 °C	13.5 nM	12.9 nM	180 min	10%

These reach a lower IC50 [1]. Values come first.

IC50 [1]	melting point	SMILES	Kb (rabbit aortic rings; [2])	Kb (rabbit aortic rings; [3])	Assay C Duration (pressor response to AII)	inhibition in vivo at 3 mg/kg (pressor response to AII)
7.6 nM	168.5 to 170 °C	CCCCc1cn(CCC(C)C)c(=O)n1Cc1ccc(-c2ccccc2-c2nnn[nH]2)nc1 [Example 14, 1-isopentyl-4-butyl-1,3-dihydro-3-[[6-[2-(1H-tetrazol-5-yl)phenyl]-3-pyridinyl]methyl]-2H-imidazol-2-one]	1.74 nM	2.29 nM	>180 min	35%
6.5 nM	170 to 171 °C	CCCCc1cn(CCCC)c(=O)n1Cc1ccc(-c2ccccc2-c2nnn[nH]2)nc1 [Example 1, 1,4-dibutyl-1,3-dihydro-3-[[6-[2-(1H-tetrazol-5-yl)phenyl]-3-pyridinyl]methyl]-2H-imidazol-2-one]	1.51 nM	2.95 nM	>180 min	50%
5.4 nM	81 to 83 °C	CCCCc1cn(-c2ccccc2Cl)c(=O)n1Cc1ccc(-c2ccccc2-c2nnn[nH]2)nc1 [Example 32, 1-(2-chlorophenyl)-4-butyl-1,3-dihydro-3-[[6-[2-(1H-tetrazol-5-yl)phenyl]-3-pyridinyl]methyl]-2H-imidazol-2-one]	1.58 nM	0.912 nM	>180 min	50%
5 nM	137 to 138 °C	CCCCc1cn(CCc2cccs2)c(=O)n1Cc1ccc(-c2ccccc2-c2nnn[nH]2)nc1 [Example 25, 1-[2-(2-thienyl)ethyl]-4-butyl-1,3-dihydro-3-[[6-[2-(1H-tetrazol-5-yl)phenyl]-3-pyridinyl]methyl]-2H-imidazol-2-one]	0.389 nM	0.692 nM	>180 min	25%
